Reference: patent US20170210751A1, “PRMT5 INHIBITORS AND USES THEREOF” (Epizyme, Inc., priority 2014, published 2017)

Molecular target: T1, PRMT5/MEP50 (Homo sapiens, UniProt O14744)
T1 construct: Flag-PRMT5; made in house; host or cells: Spodoptera frugiperda (SF9) insect cells, baculovirus (pDEST8)
Assay: PRMT5 Biochemical Assay (PRMT5/MEP50 enzyme assay on peptide substrate, 3H-SAM Flashplate)
Settings: PRMT5/MEP50 4 nM, 3H-SAM 75 nM, peptide 40 nM, 30 min preincubation at 25 degrees Celsius
Source text: S-adenosylmethionine (SAM), S-adenosylhomocysteine (SAH), bicine, KCl, Tween20, dimethylsulfoxide (DMSO), bovine skin gelatin (BSG), and Tris(2-carboxyethyl)phosphine hydrochloride solution (TCEP) were purchased from Sigma-Aldrich at the highest level of purity possible. ^3H-SAM was purchase from American Radiolabeled Chemicals with a specific activity of 80 Ci/mmol. 384-well streptavidin Flashplates were purchased from PerkinElmer.
Peptide representative of human histone H4 residues 1-15 was synthesized with a C-terminal linker-affinity tag motif and a C-terminal amide cap by 21st Century Biochemicals. The peptide was high high-performance liquid chromatography (HPLC) purified to greater than 95% purity and confirmed by liquid chromatography mass spectrometry (LC-MS). The sequence was Ac-[…][K-Biot]-amide (SEQ ID NO.:3).
Full-length human PRMT5 (NM_006109.3) transcript variant 1 clone was amplified from a fetal brain cDNA library, incorporating flanking 5′ sequence encoding a FLAG tag ([…]) (SEQ ID NO.:4) fused directly to Ala 2 of PRMT5. Full-length human MEP50 (NM_024102) clone was amplified from a human testis cDNA library incorporating a 5′ sequence encoding a 6-histidine tag (MHHHHHH) (SEQ ID NO.:5) fused directly to Arg 2 of MEP50. The amplified genes were sublconed into pENTR/D/TEV (Life Technologies) and subsequently transferred by Gateway™ attL×attR recombination to pDEST8 baculvirus expression vector (Life Technologies).
Recombinant baculovirus and Baculovirus-Infected Insect Cells (BIIC) were generated according to Bac-to-Bac kit instructions (Life Technologies) and Wasilko, 2006, respectively. Protein over-expression was accomplished by infecting exponentially growing Spodoptera frugiperda (SF9) cell culture at 1.2×10^6 cell/ml with a 5000 fold dilution of BIIC stock. Infections were carried out at 27° C. for 72 hours, harvested by centrifugation, and stored at −80° C. for purification.
Flag-PRMT5/6His-MeP50 was eluted with 300 mM Imidazole in the same buffer. The purity of recovered protein was 87%. Reference: Wasilko, D. J. and S. E. Lee: “TIPS: titerless infected-cells preservation and scale-up” Bioprocess J., 5 (2006), pp. 29-32.
General Procedure for PRMT5/MEP50 Enzyme Assays on Peptide Substrates.
The assays were all performed in a buffer consisting of 20 mM Bicine (pH=7.6), 1 mM TCEP, 0.005% BSG, and 0.002% Tween20, prepared on the day of use. Compounds in 100% DMSO (1 ul) were spotted into a polypropylene 384-well V-bottom plates (Greiner) using a Platemate Plus outfitted with a 384-channel head (Thermo Scientific). DMSO (1 ul) was added to Columns 11, 12, 23, 24, rows A-H for the maximum signal control and 1 ul of SAH, a known product and inhibitor of PRMT5/MEP50, was added to columns 11, 12, 23, 24, rows I-P for the minimum signal control. A cocktail (40 ul) containing the PRMT5/MEP50 enzyme and the peptide was added by Multidrop Combi (Thermo-Fisher). The compounds were allowed to incubate with PRMT5/MEP50 for 30 min at 25 degrees Celsius, then a cocktail (10 ul) containing ^3H-SAM was added to initiate the reaction (final volume=51 ul). The final concentrations of the components were as follows: PRMT5/MEP50 was 4 nM, ^3H-SAM was 75 nM, peptide was 40 nM, SAH in the minimum signal control wells was 100 uM, and the DMSO concentration was 1%. The assays were stopped by the addition of non-radioactive SAM (10 ul) to a final concentration of 600 uM, which dilutes the ^3H-SAM to a level where its incorporation into the peptide substrate is no longer detectable. 50 ul of the reaction in the 384-well polypropylene plate was then transferred to a 384-well Flashplate and the biotinylated peptides were allowed to bind to the streptavidin surface for at least 1 hour before being washed three times with 0.1% Tween20 in a Biotek ELx405 plate washer. […]

T1 sequence (O14744 with tags, fused parts or gaps): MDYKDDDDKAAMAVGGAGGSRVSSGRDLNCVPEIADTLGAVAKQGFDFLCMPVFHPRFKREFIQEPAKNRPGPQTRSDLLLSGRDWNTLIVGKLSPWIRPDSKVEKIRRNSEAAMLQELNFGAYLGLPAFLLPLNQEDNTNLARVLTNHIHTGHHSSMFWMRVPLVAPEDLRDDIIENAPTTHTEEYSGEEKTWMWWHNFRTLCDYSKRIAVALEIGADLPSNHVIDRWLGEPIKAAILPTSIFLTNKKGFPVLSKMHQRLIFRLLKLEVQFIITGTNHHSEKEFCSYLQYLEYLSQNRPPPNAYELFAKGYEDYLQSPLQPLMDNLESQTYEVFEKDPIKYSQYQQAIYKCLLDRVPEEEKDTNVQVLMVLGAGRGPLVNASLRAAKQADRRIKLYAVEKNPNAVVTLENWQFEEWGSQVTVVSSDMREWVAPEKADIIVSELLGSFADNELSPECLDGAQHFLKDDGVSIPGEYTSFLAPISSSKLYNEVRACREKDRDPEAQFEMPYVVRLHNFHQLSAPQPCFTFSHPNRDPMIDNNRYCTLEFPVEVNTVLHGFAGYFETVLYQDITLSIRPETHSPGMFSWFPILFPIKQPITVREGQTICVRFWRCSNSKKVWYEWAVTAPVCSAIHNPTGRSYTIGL
T1 sequence (Q9BQA1 with tags, fused parts or gaps partner limits assumed): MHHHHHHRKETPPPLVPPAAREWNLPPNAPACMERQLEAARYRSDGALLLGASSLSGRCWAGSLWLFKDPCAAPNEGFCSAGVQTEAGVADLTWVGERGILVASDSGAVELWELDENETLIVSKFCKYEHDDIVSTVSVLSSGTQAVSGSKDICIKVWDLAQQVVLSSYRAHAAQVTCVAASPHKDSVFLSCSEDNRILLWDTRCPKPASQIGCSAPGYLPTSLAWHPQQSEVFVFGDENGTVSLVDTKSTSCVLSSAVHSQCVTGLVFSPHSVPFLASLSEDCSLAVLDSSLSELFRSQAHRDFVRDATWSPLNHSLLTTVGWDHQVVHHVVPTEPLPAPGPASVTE

Row | Structure (SMILES) | IC50 [µM]
1 | OC(COc1cccc(CNC2CCCC2)c1)CN1CCc2ccncc2C1 (stereo not drawn) [Compound 2-2, 1-(3-((cyclopentylamino)methyl)phenoxy)-3-(3,4-dihydro-2,7-naphthyridin-2(1H)-yl)propan-2-ol] | > 50
2 | Cn1cnc2c1CCN(C[C@@H](O)COc1cccc(CNC3CCCC3)c1)C2 [Compound 3-3] | > 50
3 | Cn1ncc2c1CCN(CC(O)COc1cccc(CNC3CCCC3)c1)C2 (stereo not drawn) [Compound 3-8] | > 50
4 | Cn1cnc2c1CN(C[C@@H](O)COc1cccc(CNC3CCCC3)c1)CC2 [Compound 3-15] | > 50
5 | OC(COc1cccc(CNC2CCCC2)c1)CN1CCc2[nH]cnc2C1 (stereo not drawn) [Compound 3-7] | > 50
6 | OC(COc1cccc(CNC2CCCC2)c1)CN1CCc2ncccc2C1 (stereo not drawn) [Compound 2-1, 1-(3-((cyclopentylamino)methyl)phenoxy)-3-(7,8-dihydro-1,6-naphthyridin-6(5H)-yl)propan-2-ol] | > 50
7 | Cn1ncc2c1CCN(C[C@H](O)COc1cccc(-c3ccc4ncn(C)c4c3)c1)C2 [Compound 3-5] | > 50
8 | CC(=O)N1CCC(Nc2cc(C(=O)NC[C@H](O)CN3CCc4cn(C)nc4C3)ncn2)CC1 [Compound 3-59] | > 10
9 | OC(COc1ccccc1)CN1CCc2[nH]nc(-c3ccccc3)c2C1 (stereo not drawn) [Compound 3-32] | > 50
10 | Cn1cnc2c1CN(C[C@H](O)COc1cccc(CNC3CCCC3)c1)CC2 [Compound 3-16] | > 50
11 | Cn1cc2c(n1)CCN(C[C@H](O)COc1cccc(-c3ccc4ncn(C)c4c3)c1)C2 [Compound 3-18] | > 50
12 | O=C(NC[C@H](O)CN1CCc2scnc2C1)c1cc(NC2COC2)ncn1 [Compound 1-21] | > 10
13 | Cn1cc2c(n1)CN(C[C@@H](O)CNC(=O)c1cc(NC3COC3)ncn1)CC2 [Compound 3-42] | > 10
14 | OC(COc1cccc(CNC2CCCC2)c1)CN1CCc2cnccc2C1 (stereo not drawn) [Compound 2-3] | > 50
15 | Cn1cc2c(n1)CCN(C[C@@H](O)COc1cccc(-c3ccc4ncn(C)c4c3)c1)C2 [Compound 3-1] | > 50
16 | Cn1ncc2c1CCN(C[C@@H](O)COc1cccc(-c3ccc4ncn(C)c4c3)c1)C2 [Compound 3-4] | > 50
17 | Cn1cc2c(n1)CCN(CC(O)COc1cccc(CNC3CCCC3)c1)C2 (stereo not drawn) [Compound 3-2] | > 50
18 | Cn1cnc2c1CCN(C[C@H](O)COc1cccc(CNC3CCCC3)c1)C2 [Compound 3-13] | > 50

The remaining lines, values ahead:

Row | IC50 [µM] | Structure (SMILES)
19 | < 0.1 | Cc1sc2c(c1C)CN(C[C@@H](O)CNC(=O)c1cc(NC3COC3)ncn1)CC2 [Compound 1-24]
20 | 0.101 to 1 | CC(=O)N1CC(Nc2cc(C(=O)NC[C@H](O)CN3CCc4c(C)csc4C3)ncn2)C1 [Compound 1-26]
21 | 10 to 50 | Cn1cnc2ccc(-c3cccc(OCC(O)CN4CCc5[nH]nc(-c6ccccc6)c5C4)c3)cc21 (stereo not drawn) [Compound 3-6, 1-(3-(1-methyl-1H-benzo[d]imidazol-6-yl)phenoxy)-3-(3-phenyl-6,7-dihydro-1H-pyrazolo[4,3-c]pyridin-5(4H)-yl)propan-2-ol]
22 | > 10 | Cc1nc2c(s1)CCN(C[C@@H](O)CNC(=O)c1cc(NC3COC3)ncn1)C2 [Compound 1-22]
23 | < 0.1 | CC(=O)N1CCC(Nc2cc(C(=O)NC[C@H](O)CN3CCc4c(C)csc4C3)ncn2)CC1 [Compound 1-10, (S)-6-((1-acetylpiperidin-4-yl)amino)-N-(2-hydroxy-3-(3-methyl-4,5-dihydrothieno[2,3-c]pyridin-6(7H)-yl)propyl)pyrimidine-4-carboxamide]
24 | 1 to 10 | O=C(NC[C@H](O)CN1CCc2cccnc2C1)c1cc(NC2COC2)ncn1 [Compound 2-10]
25 | 0.101 to 1 | CC(=O)N1CCC(Nc2cc(C(=O)NC[C@H](O)CN3CCc4cn(C)nc4C3)ccn2)CC1 [Compound 3-55]
26 | > 10 | CC(=O)N1CC(Nc2cc(C(=O)NC[C@H](O)CN3CCc4scnc4C3)ncn2)C1 [Compound 1-25]
27 | > 10 | CC(=O)N1CC(Nc2cc(C(=O)NC[C@H](O)CN3CCc4cn(C)nc4C3)ncn2)C1 [Compound 3-48]
28 | 1 to 10 | CC(=O)N1CCC(Nc2cc(C(=O)NC[C@H](O)CN3CCc4nc(C)sc4C3)ccn2)CC1 [Compound 1-9]
29 | 10 to 50 | Cn1cnc2ccc(-c3cccc(OCC(O)CN4CCc5ncccc5C4)c3)cc21 (stereo not drawn) [Compound 2-4, 1-(7,8-dihydro-1,6-naphthyridin-6(5H)-yl)-3-(3-(1-methyl-1H-benzo[d]imidazol-6-yl)phenoxy)propan-2-ol]
30 | < 0.1 | CC(=O)N1CCC(Nc2cc(C(=O)NC[C@H](O)CN3CCc4sc(C)c(C)c4C3)ccn2)CC1 [Compound 1-15, (S)-2-((1-acetylpiperidin-4-yl)amino)-N-(3-(2,3-dimethyl-6,7-dihydrothieno[3,2-c]pyridin-5(4H)-yl)-2-hydroxypropyl)isonicotinamide]
31 | 0.101 to 1 | CC(=O)N1CCC(Nc2cc(C(=O)NC[C@H](O)CN3CCc4cnn(C)c4C3)ncn2)CC1 [Compound 3-60]
32 | 1 to 10 | Cn1ncc2c1CN(C[C@@H](O)CNC(=O)c1cc(NC3COC3)ncn1)CC2 [Compound 3-43]
33 | 0.101 to 1 | CC(=O)N1CCC(Nc2cc(C(=O)NC[C@H](O)CN3CCc4cnn(C)c4C3)ccn2)CC1 [Compound 3-37, (S)-2-((1-acetylpiperidin-4-yl)amino)-N-(2-hydroxy-3-(1-methyl-4,5-dihydro-1H-pyrazolo[3,4-c]pyridin-6(7H)-yl)propyl)isonicotinamide]
34 | 1 to 10 | CC(=O)N1CCC(Nc2cc(C(=O)NC[C@H](O)CN3CCc4[nH]ncc4C3)ncn2)CC1 [Compound 3-20]
35 | < 0.1 | CC(=O)N1CCC(Nc2cc(C(=O)NC[C@H](O)CN3CCc4sc(C)c(C)c4C3)ncn2)CC1 [Compound 1-39]
36 | 1 to 10 | CC(=O)N1CC(Nc2cc(C(=O)NC[C@H](O)CN3CCc4cnn(C)c4C3)ncn2)C1 [Compound 3-49]
37 | < 0.1 | CC(=O)N1CC(Nc2cc(C(=O)NC[C@H](O)CN3CCc4sc(C)c(C)c4C3)ncn2)C1 [Compound 1-31]

Test system: Z-138 cell line
Assay: Z-138 Proliferation Assay (Cell Titer Glo)
Assay type: cell-based
Settings: Homo sapiens, 120 h; Z-138 cells, 5 days incubation, ATP (Cell Titer Glo)
Source text: Z-138 Proliferation Assay
Z-138 suspension cells were purchased from ATCC (American Type Culture Collection, Manassas, Va.). RPMI/Glutamax medium, penicillin-streptomycin, heat inactivated fetal bovine serum were purchased from Life Technologies, Grand Island, N.Y., USA. V-bottom polypropylene 384-well plates were purchased from Greiner Bio-One, Monroe, N.C., USA. Cell culture 384-well white opaque plates were purchased from Perkin Elmer, Waltham, Mass., USA. Cell-Titer Glo® was purchased from Promega Corporation, Madison, Wis., USA. SpectraMax M5 plate reader was purchased from Molecular Devices LLC, Sunnyvale, Calif., USA.
Z-138 suspension cells were maintained in growth medium (RPMI 1640 supplemented with 10% v/v heat inactivated fetal bovine serum and cultured at 37° C. under 5% CO2. Under assay conditions, cells were incubated in assay medium (RPMI 1640 supplemented with 10% v/v heat inactivated fetal bovine serum and 100 units/mL penicillin-streptomycin) at 37° C. under 5% CO2.
For the assessment of the effect of compounds on the proliferation of the Z-138 cell line, exponentially growing cells were plated in 384-well white opaque plates at a density of 10,000 cells/ml in a final volume of 50 μl of assay medium. A compound source plate was prepared by performing triplicate nine-point 3-fold serial dilutions in DMSO, beginning at 10 mM (final top concentration of compound in the assay was 20 μM and the DMSO was 0.2%). A 100 nL aliquot from the compound stock plate was added to its respective well in the cell plate. […] After addition of compounds, assay plates were incubated for 5 days at 37° C., 5% CO2, relative humidity >90%.
Cell viability was measured by quantitation of ATP present in the cell cultures, adding 35 μl of Cell Titer Glo® reagent to the cell plates. Luminescence was read in the SpectraMax M5 microplate reader. The concentration of compound inhibiting cell viability by 50% was determined using a 4-parametric fit of the normalized dose response curves.

Row | Structure (SMILES) | EC50 [µM]
38 | O=C(NC[C@H](O)CN1CCc2cccnc2C1)c1cc(NC2COC2)ncn1 [Compound 2-10] | 1 to 10
39 | OC(COc1cccc(CNC2CCCC2)c1)CN1CCc2ncccc2C1 (stereo not drawn) [Compound 2-1, 1-(3-((cyclopentylamino)methyl)phenoxy)-3-(7,8-dihydro-1,6-naphthyridin-6(5H)-yl)propan-2-ol] | > 40
